Patent publication US8569524B2, “Bis(tetrahydrofuran) compound, method for production of the compund, and use of the compound” (Glytech Inc., priority 2007, dated 2013)

Tested on: Pheochromocytoma (PC12) cells
Assay: Neurite outgrowth activity test in PC12 cells in the presence of NGF
Format: cell-based
Conditions: in the presence of DMSO and NGF (20 ng/ml), compared with the sample without compound, micrographs
Experimental: When the solvent was ethanol, the concentrations were targeted at 1 mM, 0.1 mM, and […]. A sample at 1 mM concentration was prepared first. When the amount of sample was 1 mg, the sample was dissolved in 100% ethanol (1/molecular weight×1,000)/2 ml, and an equal amount of Milli-Q (1/molecular weight×1,000)/2 ml was added thereto, after which the sample was filtered through a […] into a sample tube.
A sample at 0.1 mM concentration was prepared by diluting 1 mM solution 10-fold with 50% ethanol. Likewise, a sample at […] concentration was prepared from 0.1 mM solution.
When the solvent was DMSO, the concentrations were targeted at 10 mM, 1 mM, and 0.1 mM.
When the sample is prepared in ethanol, the sample is diluted 100-fold with the medium; and when the sample is prepared in DMSO, the sample is diluted 1,000-fold in the medium. The actual concentrations of the sample were thus […] both when the sample was prepared in ethanol and when the sample was prepared in DMSO.
Measurement was carried out using the following equipment and software.
Statistical processing of obtained data was carried out using “Origin ver. 7.0” (OriginLab, USA) and Mac Statistical Analysis. The significant difference was determined using Student's T-test and Dunnett's T-test.
Pheochromocytoma (PC12) cells were purchased from the Health Science Research Resources Bank of the Japan Health Sciences Foundation. Cell number: JCRB0733, product name: PC-12.
PC12 cells were cultivated in a medium having a composition including DMEM/10% HS, 5% FBS, 50 IU/ml penicillin, and […], in a culture flask coated with rat tail-derived collagen, in an incubator (95% humidity, 5% carbon dioxide). When the cell density becomes obviously too low, or when the cells overproliferate, the cells would be under load, requiring a longer time for proliferation and/or causing the cells to dye out. Thus, the cells were subcultured such that the cells would be present at a density of about 80% in the flask. When cells were subcultured or when activity evaluation tests were carried out, the cells were treated with trypsin (0.25%, 5 min.) to obtain a cell suspension, which was then seeded into a collagen-coated culture flask or plate.
The condition of the PC12 cells was observed; it was confirmed that at least 50% of the PC12 cells were fused. The plate was coated with rat tail-derived collagen; on the following day, the plate was washed twice with Milli-Q water. Then, a medium having a composition including DMEM/10% HS, 5% FBS, 50 IU/ml penicillin, and […] was prepared.
The medium in the culture flask was removed by suction. The PC12 cells were washed twice with PBS (5 mL), and trypsin (3 mL) was added thereto, which was then left to stand for about 5 minutes. A cell suspension was obtained by pipetting. In order to inhibit the activity of the trypsin, the cell suspension was transferred to a 50 mL centrifuge tube containing a serum-containing medium (2 mL). The total amount was adjusted to 10 mL with PBS, and the cell suspension was centrifuged (1,000 rpm×5 min). After centrifuging, the supernatant liquid was removed by suction using a pump, PBS (10 mL) was added thereto, and pipetting was carried out several times using a bent-tip Komagome pipette. After pipetting, the cell suspension was centrifuged again, and a similar operation was repeated twice. […]

| SMILES | neurite outgrowth activity (1 μM compound) | neurite outgrowth activity (10 μM compound) |
| --- | --- | --- |
| CO[C@@]1(C)C[C@@H]2OCC3=CCCCC32O1 (some centres unmarked) [Compound 1C-2-1] | further enhanced neurite outgrowth activity | further enhanced neurite outgrowth activity |
| CO[C@]1(C)C[C@@H]2OCC3=CCCCC32O1 (some centres unmarked) [Compound 1D-2-1] | further enhanced neurite outgrowth activity | further enhanced neurite outgrowth activity |
| CCO[C@]1(C)C[C@@H]2OCC3=CCCC[C@]32O1 [Compound 1D-2-3] | – | further enhanced neurite outgrowth activity |
